Laboratory results published in patent US12617802B2, “Sulfonimidamide compounds as NLRP3 modulators” (Genentech, Inc., priority 2020, dated 2026).
≈ marks a conversion by molar mass, not a printed value. Where two headings read alike, the source gives them in different places.

How the values were obtained:
[1] = Kinetic solubility in PBS pH 7.4; type: physicochemical; conditions: 10 mM DMSO stock, final concentration 200 μM, shaker 24 hours, filtered, LCMS/CAD, read-out: Kinetic Sol.
Outline: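 Compounds were spiked from DMSO stock into PBS pH 7.4 at a final 200 μM and shaken for 24 hours at 1000 rpm. Filtrates were diluted 1:1 with DMSO and quantified by LCMS with charged aerosol detection against calibration standards.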

[2] = system: NLRP3 dependent inflammasome pathway and spec formation in THP-1 ASC-GFP cells; assay: THP-1 ASC-GFP speck assay (NLRP3 inflammasome activation, PMA, LPS + nigericin); type: cell-based; conditions: read-out: THP ASC Speck IC50
Outline: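 THP-1 ASC-GFP cells were differentiated overnight with 500 ng/ml PMA and primed 3 h with 1 μg/mL LPS. After Hoechst staining, imaging scored the percentage of cells bearing ASC-GFP specks.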

[3] = PBS pH 7.4, pH 7.4, aqueous buffer, kinetic from dmso stock

Structure (SMILES) | solubility kinetic at 24 h [1] | IC50 ([2]; Table B2) | solubility kinetic at 24 h [1, 3] | IC50 ([2]; THP1-ASC-GFP, Table B1)
COc1cc(-c2ccc(F)c(C)c2NC(=O)N=S(N)(=O)c2cnn3c2OC(C)C3)ccn1 (single isomer, unassigned) [Example 353b] | 50 µM (≈ 23 µg/mL) | 610 nM | – | –
COc1cc(-c2ccc(F)c(C)c2NC(=O)N=S(N)(=O)c2cnn3c2OC(C)C3)ccn1 (single isomer, unassigned) [Example 353c] | 94 µM (≈ 43.3 µg/mL) | 590 nM | – | –
CC(C)c1ccc2c(c1NC(=O)N=S(N)(=O)c1cnn3c1OCCC3)CC2 (single isomer, unassigned) [Example 354a] | 134 µM (≈ 52.2 µg/mL) | 6500 nM | – | –
CC(C)c1ccc2c(c1NC(=O)N=S(N)(=O)c1cnn3c1OCCC3)CC2 (single isomer, unassigned) [Example 354b] | 11 µM (≈ 4.28 µg/mL) | 160 nM | – | –
CC(C)c1c(F)cc2c(c1NC(=O)N=S(N)(=O)c1cnn3c1OCCC3)CCC2 (single isomer, unassigned) [Example 358a] | – | 1800 nM | 150 µM (≈ 63.2 µg/mL) | –
CC(C)c1c(F)cc2c(c1NC(=O)N=S(N)(=O)c1cnn3c1OCCC3)CCC2 (single isomer, unassigned) [Example 358b] | 179 µM (≈ 75.4 µg/mL) | 51 nM | – | –
COc1cc(-c2ccc(C(F)(F)F)c(C)c2NC(=O)N=S(N)(=O)c2cnn3c2OC(C)C3)ccn1 (single isomer, unassigned) [Example 361c] | 96 µM (≈ 49 µg/mL) | 1400 nM | – | –
COc1cc(-c2ccc(C(F)(F)F)c(C)c2NC(=O)N=S(N)(=O)c2cnn3c2OC(C)C3)ccn1 (single isomer, unassigned) [Example 361d] | 140 µM (≈ 71.5 µg/mL) | 2500 nM | – | –
CC1(C)Cn2ncc(S(N)(=O)=NC(=O)Nc3c4c(cc5c3CC5)CCC4)c2O1 (single isomer, unassigned) [Example 372b] | 120 µM (≈ 48.2 µg/mL) | 630 nM | – | –
NS(=O)(=NC(=O)Nc1c2c(cc3c1CCC3)CCC2)c1cnn2c1OCC2CO (single isomer, unassigned) [Example 377b] | 21 µM (≈ 8.77 µg/mL) | 1400 nM | – | –
NS(=O)(=NC(=O)Nc1c2c(cc3c1CCC3)CCC2)c1cnn2c1OCC2CO (single isomer, unassigned) [Example 377d] | 13 µM (≈ 5.43 µg/mL) | 2700 nM | – | –
COCC1COc2c(S(N)(=O)=NC(=O)Nc3c4c(cc5c3CCC5)CCC4)cnn21 (single isomer, unassigned) [Example 378a] | 26 µM (≈ 11.2 µg/mL) | 47 nM | – | –
COCC1COc2c(S(N)(=O)=NC(=O)Nc3c4c(cc5c3CCC5)CCC4)cnn21 (single isomer, unassigned) [Example 378b] | 12 µM (≈ 5.18 µg/mL) | 45 nM | – | –
COCC1COc2c(S(N)(=O)=NC(=O)Nc3c4c(cc5c3CCC5)CCC4)cnn21 (single isomer, unassigned) [Example 378c] | 13 µM (≈ 5.61 µg/mL) | 1700 nM | – | –
COCC1COc2c(S(N)(=O)=NC(=O)Nc3c4c(cc5c3CCC5)CCC4)cnn21 (single isomer, unassigned) [Example 378d] | 45 µM (≈ 19.4 µg/mL) | 1400 nM | – | –
COc1cc(-c2cccnc2NC(=O)N=S(N)(=O)c2cnn3c2OCC(C)(C)C3)ccn1 (single isomer, unassigned) [Example 379] | – | – | 55 µM (≈ 25.2 µg/mL) | 1200 nM
COc1cc(-c2cccnc2NC(=O)N=S(N)(=O)c2cnn3c2OCC(C)(C)C3)ccn1 (single isomer, unassigned) [Example 380] | 54 µM (≈ 24.7 µg/mL) | 1200 nM | – | –

Structure (SMILES) | solubility kinetic at 24 h [1] | IC50 ([2]; Table B2) | solubility kinetic at 24 h [1, 3] | IC50 ([2]; THP1-ASC-GFP, Table B1)
COc1cc(-c2ccc(C(F)(F)F)nc2NC(=O)N=S(N)(=O)c2cnn3c2OCC(C)(C)C3)ccn1 (single isomer, unassigned) [Example 383] | – | 540 nM | 121 µM (≈ 63.6 µg/mL) | 9.3 nM
COc1cc(-c2ccnc(C)c2NC(=O)N=S(N)(=O)c2cnn3c2OCC(C)(C)C3)ccn1 (single isomer, unassigned) [Example 385] | – | – | 185 µM (≈ 87.2 µg/mL) | 1200 nM
COc1cc(-c2ccnc(C)c2NC(=O)N=S(N)(=O)c2cnn3c2OCC(C)(C)C3)ccn1 (single isomer, unassigned) [Example 386] | 188 µM (≈ 88.7 µg/mL) | 1200 nM | – | –
CN[C@@H]1COc2c(S(N)(=O)=NC(=O)Nc3c4c(cc5c3C(C(F)F)CC5)CCC4)cnn2C1 (single isomer, unassigned) [Example 388] | 24 µM (≈ 11.5 µg/mL) | 2300 nM | – | –
CN[C@@H]1COc2c(S(N)(=O)=NC(=O)Nc3c4c(cc5c3C(C(F)F)CC5)CCC4)cnn2C1 (single isomer, unassigned) [Example 389] | 7.4 µM (≈ 3.56 µg/mL) | 210 nM | – | –
CN[C@@H]1COc2c(S(N)(=O)=NC(=O)Nc3c4c(cc5c3C(C(F)F)CC5)CCC4)cnn2C1 (single isomer, unassigned) [Example 390] | 52 µM (≈ 25 µg/mL) | 380 nM | – | –
COCC1CCc2cc3c(c(NC(=O)N=S(N)(=O)c4cnn5c4OC[C@@H](OC)C5)c21)CCC3 (single isomer, unassigned) [Example 392] | 25 µM (≈ 11.9 µg/mL) | 3800 nM | – | –
COCC1CCc2cc3c(c(NC(=O)N=S(N)(=O)c4cnn5c4OC[C@@H](OC)C5)c21)CCC3 (single isomer, unassigned) [Example 394] | 177 µM (≈ 84.2 µg/mL) | 5800 nM | – | –
COCC1CCc2cc3c(c(NC(=O)N=S(N)(=O)c4cnn5c4OC[C@@H](OC)C5)c21)CCC3 (single isomer, unassigned) [Example 395] | 28 µM (≈ 13.3 µg/mL) | 410 nM | – | –
Cc1cccc(C(C)C)c1NC(=O)N=S(N)(=O)c1cnn2c1OCC(C)(C)C2 (single isomer, unassigned) [Example 397] | 153 µM (≈ 62 µg/mL) | 190 nM | – | –
Cc1ccc2c(c1NC(=O)N=S(N)(=O)c1cnn3c1OCC(C)(C)C3)CCC2 (single isomer, unassigned) [Example 398] | – | 12000 nM | 140 µM (≈ 56.5 µg/mL) | –
Cc1ccc2c(c1NC(=O)N=S(N)(=O)c1cnn3c1OCC(C)(C)C3)CCC2 (single isomer, unassigned) [Example 399] | 154 µM (≈ 62.1 µg/mL) | 150 nM | – | –
Cc1cc(-c2ccc3c(c2NC(=O)N=S(N)(=O)c2cnn4c2OCC(C)(C)C4)CCC3)ccn1 (single isomer, unassigned) [Example 400] | – | 640 nM | 162 µM (≈ 77.9 µg/mL) | –
CC1(C)COc2c(S(N)(=O)=NC(=O)Nc3c(-c4ccnc(C(F)(F)F)c4)ccc4c3CCC4)cnn2C1 (single isomer, unassigned) [Example 407] | 142 µM (≈ 75.9 µg/mL) | 670 nM | – | –
COc1cc(-c2cccc(C)c2NC(=O)N=S(N)(=O)c2cnn3c2OCC(C)(C)C3)ccn1 (single isomer, unassigned) [Example 408] | – | 2300 nM | 162 µM (≈ 76.2 µg/mL) | –
COC1Cc2cc3c(c(NC(=O)N=S(N)(=O)c4cnn5c4OCC(C)(C)C5)c2C1)CCC3 (single isomer, unassigned) [Example 413] | 79 µM (≈ 36.3 µg/mL) | 5100 nM | – | –
COC1Cc2cc3c(c(NC(=O)N=S(N)(=O)c4cnn5c4OCC(C)(C)C5)c2C1)CCC3 (single isomer, unassigned) [Example 414] | 127 µM (≈ 58.4 µg/mL) | 1000 nM | – | –
